Laboratory results taken from patent EP0604355B1, “Akyl Substituted heterocyclic compounds” (N[…]/S, priority 1992, dated 1994).
Counter-ions that a name gives are not always drawn.

Assays:
[1] = system: haloperidol-induced catalepsy; assay: animal or person; settings: Rattus norvegicus, read-out: Minimum effective dose (peroral administration)
Description: The principle behind the haloperidol catalepsy test relates to the fact that the drug haloperidol (Serenase®) induces a receptor blockade of post synaptic dopamine receptors within the dopamine innervated corpus striatum of the rat brain. Following the blockade of active dopamine neurotransmission of the striatum a state of rigid immobility is induced, during which the rat can be placed in various totally abnormal immobile postures involving the forelegs and the whole body.
The day before testing, the rats weighing 200-250 g are housed 2 and 2 together in standard macrolon cages.
The testing for the immobile catalepsy syndrome includes 4 tests performed in the following consecutive order: • 1) a vertical wire netting (40x40 cm high).The meshes (openings) of the nettings are approximately 1x2cm. • 2) a horizontal bar 9 cm above the floor • 3) a 9 cm high block (bar) • 4) a 3 cm high block (cork)
The rats were scored for the immobile cataleptic syndrome every 15 min in all 4 tests starting 15 min after the haloperidol injection. The intensity of catalepsy was tested during 10 sec in all tests and evaluated according to a criteria of 10 sec of total immobility for a score of 2.
The rat was placed in the middle of the vertical wire netting, then on the horizontal bar in an extended position with support by both the forelegs on the bar. […]

[2] = molecular target: reuptake of dopamine in synaptosomes of rat forebrain (Rattus norvegicus, UniProt P23977); assay: biochemical
Protocol: Fresh whole forebrain (at 0-4°C) from male Wistar rats (150-200 g) is homogenized in a glass homogenizer with a Teflon pestle in 20 x volumes 0.32M sucrose. The homogenate is centrifuged at 1000 x g (∼2900 rpm) for 10 min. The pellet is discarded and the supernatant is used for uptake assays.
The samples are thoroughly mixed and incubated 10 min at 37°C followed by 2 min at 0°C. After incubation the samples are poured directly onto Whatman GF/C glass fibre filters under suction and immediately washed with 2 x 5 ml ice-cold 0.9% saline (NaCl) buffer. To the filter is added 3 ml of scintillation fluid, and the amount of radioactivity on the filters is determined by conventional liquid scintillation counting.

[3] = system: dopamine releasing properties; assay: dopamine releasing properties (no method described); settings: in contrast to Win 35,428 and cocaine

reuptake of dopamine in synaptosomes of rat forebrain, sequence (P23977 whole entry): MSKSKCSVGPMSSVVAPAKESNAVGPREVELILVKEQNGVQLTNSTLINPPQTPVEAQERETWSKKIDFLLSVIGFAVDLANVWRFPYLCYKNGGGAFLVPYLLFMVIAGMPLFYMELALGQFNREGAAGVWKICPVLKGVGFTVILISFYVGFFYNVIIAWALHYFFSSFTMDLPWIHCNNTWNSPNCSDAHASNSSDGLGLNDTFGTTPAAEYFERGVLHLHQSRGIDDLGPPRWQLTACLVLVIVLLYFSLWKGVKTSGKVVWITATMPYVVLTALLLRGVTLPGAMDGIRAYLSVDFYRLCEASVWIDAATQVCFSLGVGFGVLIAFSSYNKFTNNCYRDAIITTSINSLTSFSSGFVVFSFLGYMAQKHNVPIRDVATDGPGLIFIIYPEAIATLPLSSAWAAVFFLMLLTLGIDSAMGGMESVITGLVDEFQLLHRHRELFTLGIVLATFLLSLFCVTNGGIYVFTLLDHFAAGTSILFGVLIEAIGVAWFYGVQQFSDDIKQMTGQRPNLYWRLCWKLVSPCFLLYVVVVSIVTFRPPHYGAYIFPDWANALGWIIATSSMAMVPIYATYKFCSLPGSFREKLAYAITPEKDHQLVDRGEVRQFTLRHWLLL

Compound	IC50 [2] [nM]	further results
Cc1noc([C@@H]2[C@@H](c3ccc(Cl)cc3)C[C@@H]3CC[C@H]2N3C)n1.Cl [(1R,2R,3S)-2-(3-Methyl-1,2,4-oxadiazol-5-yl)-3-(4-chlorophenyl)-tropane, hydrochloride]		minimal effective dose [1]: > 1 mg/kg
CN1[C@H]2CC[C@@H]1[C@H](c1nc(-c3ccccc3)no1)[C@@H](c1ccc(Cl)cc1)C2 [(1R,2R,3S)-2-(3-Phenyl1,2,4-oxadiazol-5-yl)-3-(4-chlorophenyl)-tropane, hydrochloride]	330	
CN1[C@H]2CC[C@@H]1[C@H](c1nc(-c3ccccc3)no1)[C@@H](c1ccc3ccccc3c1)C2 [(1R,2R,3S)-2-(3-Phenyl-1,2,4-oxadiazol-5-yl)-3-(2-naphthyl)tropane, hydrochloride]	540	
Cc1ccc([C@H]2C[C@@H]3CC[C@H]([C@@H]2c2nc(-c4ccccc4)no2)N3C)cc1 [(1R,2R,3S)-2-(3-Phenyl-1,2,4-oxadiazol-5-yl)-3-(4-methylphenyl)-tropane, hydrochloride]	960	
COC(=O)[C@@H]1[C@@H](c2ccc(F)cc2)C[C@@H]2CC[C@H]1N2C [trans isomer of Win 35,428, (1R,2R,3S)-2-carbomethoxy-3-(4-fluorophenyl)tropane]		dopamine releasing properties [3]: essentially free of dopamine releasing properties
